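Step 1: Grow cells in 96-well plates. Step 2: Expose to compound for 48 hours at 5 concentrations. Step 3: Interpolate endpoints linearly; if unreached, use highest concentration. GI50 marks 50% less growth.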 The source made the active and inactive calls. Rule as the data show it: active = GI50 up to about 1.1 µM and inactive = higher.

We go through 13 molecules from ChEMBL document CHEMBL1201862, “PubChem BioAssay data set” (2004).

Some test systems named below: UACC-62; OVCAR-5; SF-295; HT-29; HCT-15; CCRF-CEM; UACC-257; Malme-3M; SNB-19; OVCAR-8; COLO 205; 786-0; HOP-92; SK-MEL-5; SN12C; RXF 393; SK-MEL-2; LOX IMVI.
Holding throughout (assay): NCI anticancer screen, dose series, 48 h

For the molecule `O=C(CC(=O)Nc1ccccc1O)Nc1ccccc1O`, the GI50 with UACC-62 is 3.24 µM (inactive); in the assay with OVCAR-5, 59.4 µM (inactive); in the assay on SF-295, 39 µM (inactive); in the assay with HT-29, 27.9 µM (inactive); in the assay on HCT-15 it was 5.68 µM; in the assay on CCRF-CEM, 3.96 µM (inactive). For the same molecule, the GI50 is 15.5 µM (inactive) in the assay with UACC-257; 22.8 µM (inactive) in the assay with Malme-3M; > 100 µM (inactive) in the assay on SNB-19; 14.2 µM (inactive) in the assay with OVCAR-8; 18.5 µM (inactive) in the assay on COLO 205; 19.6 µM (inactive) in the assay on 786-0. The results for the GI50 in the assay on HOP-92, in the assay on SK-MEL-5 and in the assay with SN12C were > 100 µM (inactive), 10 µM (inactive) and 16.3 µM (inactive), respectively.

Take `O=[N+]([O-])c1ccccc1C1N2CCCCC2[C@@H]2c3[nH]c4ccccc4c3CCN12` (some centres not stated): the GI50 is 3.78 µM (inactive) in the assay on UACC-62; 19.1 µM (inactive) in the assay on OVCAR-5; 13.8 µM (inactive) in the assay with SF-295; 7.53 µM (inactive) in the assay with HT-29; 10.9 µM in the assay on HCT-15; 10.4 µM (inactive) in the assay with CCRF-CEM. The GI50 in the assay on UACC-257 was 13.7 µM (inactive); in the assay on SNB-19, 14.9 µM (inactive); with OVCAR-8, 16.8 µM (inactive); in the assay on COLO 205, 13.2 µM (inactive); in the assay with RXF 393, 12.6 µM (inactive); in the assay on 786-0 it was 16.1 µM (inactive). In addition, the GI50 in the assay with HOP-92 was 15.1 µM (inactive); with SK-MEL-5, 13.4 µM (inactive); in the assay on SN12C it was 13.6 µM (inactive); with SK-MEL-2, 13.6 µM (inactive).

In the case of `CC(=O)c1ccc(NC(=O)/C(Cc2ccccn2)=N/NC(=O)C[N+](C)(C)C)cc1`, the GI50 in the assay on UACC-62 is > 100 µM (inactive); with OVCAR-5, > 100 µM (inactive); with SF-295, > 100 µM (inactive); with HT-29, > 100 µM (inactive); with HCT-15, greater than 100 µM; in the assay on CCRF-CEM, > 100 µM (inactive). The GI50 in the assay on UACC-257, in the assay with Malme-3M, with SNB-19, in the assay with OVCAR-8, in the assay with COLO 205 and with RXF 393 was > 100 µM (inactive) throughout. Also, the GI50 with LOX IMVI, in the assay with 786-0, in the assay with SK-MEL-5, with SN12C and in the assay with SK-MEL-2 was > 100 µM (inactive) in each case.

In the case of `O=C(Cc1nc2ccccc2s1)Nc1cccc(C(F)(F)F)c1`, the GI50 in the assay with UACC-62 is 12.6 µM (inactive); with OVCAR-5, 18.5 µM (inactive); in the assay on SF-295, 16.2 µM (inactive); in the assay with HT-29, 17.1 µM (inactive); in the assay with HCT-15 it was 12.4 µM; in the assay with CCRF-CEM it was 1.81 µM (inactive). Also, the GI50 in the assay with UACC-257 is 14.4 µM (inactive); in the assay on Malme-3M, 16.6 µM (inactive); with SNB-19, 16.9 µM (inactive); in the assay on OVCAR-8, 18.1 µM (inactive); in the assay on COLO 205, 17 µM (inactive); with RXF 393 it was 18.2 µM (inactive). The GI50 in the assay on LOX IMVI was 13.1 µM (inactive); in the assay with 786-0 it was 14.2 µM (inactive); in the assay on SK-MEL-5 it was 16.5 µM (inactive); in the assay with SN12C it was 16.1 µM (inactive); in the assay on SK-MEL-2, 18.5 µM (inactive).

Take `COC(=O)CCC(=O)C(C#N)c1ccc(Cl)cc1Cl` (configuration not stated): the GI50 with UACC-62 is > 100 µM (inactive); with SF-295 it was > 100 µM (inactive); with HT-29, 4.97 µM (inactive); in the assay with HCT-15 it was greater than 100 µM; with CCRF-CEM, > 100 µM (inactive); in the assay on UACC-257, > 100 µM (inactive). Besides, the GI50 in the assay on Malme-3M, with SNB-19, in the assay with LOX IMVI, with 786-0, in the assay with HOP-92 and with SN12C was > 100 µM (inactive) in each case. The GI50 with SK-MEL-2 was > 100 µM (inactive).

Turning to `CC(C)OP(=O)(OC(C)C)/C(N)=N/Nc1ccc([N+](=O)[O-])cc1`, the GI50 was 83 µM (inactive) in the assay with UACC-62; > 100 µM (inactive) in the assay on OVCAR-5; greater than 100 µM in the assay on HCT-15; 98.2 µM (inactive) in the assay with CCRF-CEM; 25.1 µM (inactive) with UACC-257; > 100 µM (inactive) in the assay with Malme-3M. Also, the GI50 in the assay with SNB-19 was 77.4 µM (inactive); in the assay with OVCAR-8, > 100 µM (inactive); in the assay on COLO 205 it was > 100 µM (inactive); in the assay on LOX IMVI it was > 100 µM (inactive); with 786-0, > 100 µM (inactive); in the assay with HOP-92, 46.7 µM (inactive). Moreover, the GI50 is 60.1 µM (inactive) in the assay on SK-MEL-5, > 100 µM (inactive) with SN12C and > 100 µM (inactive) in the assay on SK-MEL-2.

Turning to `O=C(/C=C(\O)C(=O)O)/C=C(\O)c1ccccc1`, the GI50 in the assay with UACC-62 was > 4.65 µM (inactive); with SF-295, > 4.65 µM (inactive); with HT-29 it was > 4.65 µM (inactive); with HCT-15, greater than 4.65 µM; in the assay on CCRF-CEM, > 4.65 µM (inactive); in the assay with UACC-257, > 4.65 µM (inactive). Also, the GI50 was > 4.65 µM (inactive) with SNB-19; > 100 µM (inactive) with OVCAR-8; > 4.65 µM (inactive) in the assay on COLO 205; > 100 µM (inactive) in the assay on RXF 393; > 4.65 µM (inactive) in the assay with LOX IMVI; > 100 µM (inactive) with 786-0. The GI50 in the assay on SN12C and in the assay on SK-MEL-2 was > 4.65 µM (inactive) throughout.

As to `CNc1ccc([N+](=O)[O-])c2c(NCCCN(C)C)ccnc12`, the GI50 with OVCAR-5 is > 100 µM (inactive); with SF-295, > 100 µM (inactive); in the assay with HT-29, > 100 µM (inactive); with HCT-15 it was greater than 100 µM; with CCRF-CEM, > 100 µM (inactive); in the assay with UACC-257 it was > 100 µM (inactive). Also, the GI50 in the assay on Malme-3M, with SNB-19, with OVCAR-8, with COLO 205, in the assay on LOX IMVI and in the assay with 786-0 was > 100 µM (inactive) in each case. The GI50 with SN12C and in the assay with SK-MEL-2 was > 100 µM (inactive) throughout.

Regarding `c1ccc(C2N3CCCCC3[C@@H]3c4[nH]c5ccccc5c4CCN23)nc1` (some centres not stated), the GI50 is 96.8 µM (inactive) in the assay with UACC-62; > 100 µM (inactive) in the assay with OVCAR-5; > 100 µM (inactive) in the assay with SF-295; > 100 µM (inactive) in the assay on HT-29; greater than 100 µM with HCT-15; > 100 µM (inactive) in the assay with CCRF-CEM. For the same molecule, the GI50 is > 100 µM (inactive) in the assay with UACC-257; > 100 µM (inactive) with SNB-19; > 100 µM (inactive) with OVCAR-8; 33.3 µM (inactive) in the assay on RXF 393; > 100 µM (inactive) with 786-0; > 100 µM (inactive) in the assay on HOP-92. Also, the GI50 with SK-MEL-5, in the assay with SN12C and in the assay on SK-MEL-2 was > 100 µM (inactive) each time.

Regarding `Cc1nn(C)c(=O)c2nn(-c3ccccc3)c(C)c12`, the GI50 with UACC-62 is > 100 µM (inactive); with OVCAR-5, > 100 µM (inactive); in the assay with SF-295, > 100 µM (inactive); in the assay on HT-29, > 100 µM (inactive); in the assay on HCT-15 it was greater than 100 µM; with CCRF-CEM, > 100 µM (inactive). The GI50 in the assay with UACC-257, with Malme-3M, in the assay on SNB-19, in the assay on OVCAR-8, in the assay with COLO 205 and with RXF 393 was > 100 µM (inactive) in each case. Further, the GI50 in the assay with LOX IMVI, with 786-0, with SK-MEL-5, in the assay on SN12C and in the assay on SK-MEL-2 was > 100 µM (inactive) throughout.

Turning to `Clc1ccc(Cc2nc3ccccc3s2)c(Cl)c1`, the GI50 in the assay on UACC-62 was 14.1 µM (inactive); in the assay on OVCAR-5 it was 19.3 µM (inactive); with SF-295 it was 16.8 µM (inactive); with HT-29, 20.6 µM (inactive); in the assay on HCT-15, 16.3 µM; in the assay with CCRF-CEM it was 5.21 µM (inactive). The GI50 in the assay on UACC-257 was 17.5 µM (inactive); in the assay on Malme-3M it was 16.9 µM (inactive); in the assay on SNB-19, 24.3 µM (inactive); in the assay with OVCAR-8 it was 19.8 µM (inactive); in the assay on COLO 205, 17 µM (inactive); with RXF 393, 20.9 µM (inactive). For the same molecule, the GI50 in the assay with LOX IMVI is 16.7 µM (inactive); in the assay with 786-0 it was 14.6 µM (inactive); with SK-MEL-5 it was 17.5 µM (inactive); with SN12C it was 16.5 µM (inactive); in the assay with SK-MEL-2, 16.4 µM (inactive).

Take `O=C(c1ccccc1)c1ccc2cccc(O)c2n1`: the GI50 in the assay with UACC-62 is 33.1 µM (inactive); with OVCAR-5 it was 60.8 µM (inactive); with SF-295, 18.7 µM (inactive); in the assay on HCT-15, 23.6 µM; in the assay with CCRF-CEM it was 1.19 µM (inactive); in the assay with Malme-3M, 36.1 µM (inactive). The GI50 in the assay on SNB-19 is 31.1 µM (inactive); in the assay on OVCAR-8 it was 23.6 µM (inactive); with COLO 205 it was 37.5 µM (inactive); in the assay with RXF 393 it was 16.4 µM (inactive); in the assay on LOX IMVI, 11.9 µM (inactive); in the assay on 786-0, 15.8 µM (inactive). Also, the GI50 in the assay on SK-MEL-5 is 22.9 µM (inactive); in the assay with SN12C it was 38.8 µM (inactive); in the assay on SK-MEL-2, 47.6 µM (inactive).

Regarding `O=[N+]([O-])c1ccc(C2=Nc3ccccc3[S+]([O-])C(c3ccccc3)C2)cc1` (configuration not stated), the GI50 in the assay with UACC-62 is 13.6 µM (inactive); in the assay on OVCAR-5, 25.8 µM (inactive); with SF-295, 31.3 µM (inactive); with HT-29, 19.1 µM (inactive); in the assay on HCT-15, 27 µM; in the assay on CCRF-CEM, 15.1 µM (inactive). Also, the GI50 is 22.1 µM (inactive) in the assay with UACC-257; 44.8 µM (inactive) in the assay on Malme-3M; 20 µM (inactive) in the assay on SNB-19; 32.4 µM (inactive) in the assay on OVCAR-8; 19.7 µM (inactive) in the assay on COLO 205; 14.9 µM (inactive) in the assay on RXF 393. The GI50 was 15.2 µM (inactive) in the assay with LOX IMVI; 17.5 µM (inactive) with 786-0; > 10 µM (inactive) in the assay on SK-MEL-5; 23.6 µM (inactive) in the assay on SN12C; 34.7 µM (inactive) in the assay with SK-MEL-2.
